The text below walks through data of patent US6974806B2, “Lipid-rich plaque inhibitors” (Takeda Pharmaceutical Company Limited, priority 2000, dated 2005).

Data set [1] has as its system male apo-lipoprotein E deficient mouse. In words: Experiment 2: plaque regression, % lesion area and aortic cholesteryl ester content in apoE KO mouse. Type of data set: in vivo. To be noted: arteriosclerotic diet 8 weeks, then normal diet with 30 mg/kg/day oral for 4 weeks. The method, then: (§1) [Results] The lesion (plaque) area based on the vascular internal surface area was 31% in the group fed only the normal diet after 9th week. […] Experiment 2 [Method] […] Subsequently, from the 9th week to the 12th week, Compound B (0.5% methyl cellulose suspension: at 30 mg/kg/day) was administered orally, during the period only CE-2 powder, which is a normal diet, was given. The control group was maintained with only CE-2 diet. Each animal was sacrificed by decapitation 12 weeks after initiation of the experiment, the vessel from the aortic arch to the femoral bifurcation was isolated and opened in the direction of the vascular axis, stained with oil red O (Sigma Aldrich Japan), and subjected to an image analysis similarly to Experiment 1 to calculate the % lesion area based on the entire vascular internal wall area. The vessel specimen after the image analysis was homogenized in saline, and the amount of cholesteryl ester content in the aorta was measured in accordance with the method by Hara and Radin (Lipid Extract of tissues with a low-Toxicity solvent, Anal. Biochem., 90:420-426, 1978), that is, from the aorta stained with the oil red O was extracted the lipid by a glass homogenizer with hexane:isopropyl alcohol (3:2) and centrifuged. Subsequently, the supernatant was recovered and evaporated to dryness, and then dissolved in TESIT: dioxane (1:1). From this solution, its total cholesterol content (Cholesterol C test, WAKO) and the free cholesterol content (Free Cholesterol C test, WAKO) were examined. The data obtained were corrected for the wet weight of the aorta. The cholesteryl ester content (CE) was obtained by subtracting the free cholesterol content from the total cholesterol content. Since the sample, which was extracted with hexane:isopropyl alcohol and then evaporated to dryness, contained the oil red O which interferes with the absorption wavelength for the cholesterol measurement, the cholesterol content was calculated for each sample by subtracting the blank level (absorbance of oil red O in sample). [Results]

Data set [2] has the same test system. The data set can be described thus: Experiment 3: plaque regression, % lesion area and aortic cholesteryl ester content in apoE KO mouse. To be noted: arteriosclerotic diet 8 weeks. Format: in vivo. On the procedure: as §1
[Method] […] The control group was maintained with only CE-2 diet. Each animal was sacrificed by decapitation 12 weeks after initiation of the experiment, the vessel from the aortic arch to the femoral bifurcation was isolated and opened in the direction of the vascular axis, stained with oil red O (Sigma Aldrich Japan), and subjected to an image analysis similarly to Experiment 1 to calculate the % lesion area based on the entire vascular internal wall area. The vessel specimen after the image analysis was homogenized in saline, and the amount of cholesteryl ester content in the aorta was measured by an enzymatic method similarly to Experiment 2 described above. [Results]

For data set [3] the test system is unchanged. In words: Experiment 1: plaque regression, % lesion area of aorta (oil red O) in apoE deficient mouse. Type of data set: in vivo. Particulars: arteriosclerotic diet 8 weeks, then 27 mg/kg/day mixed with normal diet, 9th to 12th week, control 31%, p<0.01. The text has this:
[Method] […] Subsequently, each of only CE-2 powder, which is a normal diet, (control group, number of animals=8) and CE-2 powder supplemented with Compound A (number of animals=8) was given ad libitum during the period from the 9th week to the 12th week. Each animal was sacrificed by decapitation 12 weeks after initiation of the experiment, the vessel from the aortic arch to the femoral bifurcation was isolated and opened in the direction of the vascular axis, stained with oil red O (Sigma Aldrich Japan), photographed closely using a medical Nikkor (NIKON), and the photograph was scanned using a scanner (GT-6000, EPSON) and the image was processed using Adobe Photoshop. Thus, the image of the vessel was trimmed and the red color was extracted and modified into a two-tone gradation.
The two-tone image was subjected to an NIH image (National Institute of Health) to count pixels, whereby calculating the % lesion area based on the entire surface area of the internal wall of the vessel.

In general, melting point refers to the temperature, or range, at which the solid turns liquid.

With `COc1cccc(OC)c1NC(=O)Nc1oc2cc3c(cc2c1-c1ccccc1C)CCC3` [Compound B, N-(2,6-dimethoxyphenyl)-N′-[3-(2-methylphenyl)-6,7-dihydro-5H-indeno[5,6-b]furan-2-yl]urea], the aortic cholesteryl ester content in data set [1] (apoE KO mice, control 9.42) stood at 4.76 µg/mg; in data set [1] (apoE KO mouse, n = 4, P < 0.05% (Dunnett's test)) it was 4.76 ± 0.46 µg/mg. The “% lesion area” value in data set [1] (apoE KO mice, control 22.6%) is listed as 16.9%; in data set [1] (apoE KO mouse, n = 4), 16.9 ± 1.6%.
In the case of “N-(2,6-dimethoxyphenyl)-N′-[3-(2-methylphenyl)-6,7-dihydro-5H-indeno[5,6-b]furan-2-yl]urea [Compound B]”, the “aortic cholesteryl ester content” value in data set [2] (apoE KO mouse, then normal diet with 10 mg/kg/day oral (b869 says) for 4 weeks, n = 10) was found to be 5.30 ± 0.37 µg/mg. In data set [2] (apoE KO mouse, then normal diet with 10 mg/kg/day oral (b869 says) for 4 weeks, n = 10, P < 0.05% (Dunnett's test)), the “% lesion area” value is 23.3 ± 1.8 %.
The compound `O=C(Cc1c(-c2ccccc2)c2cc3c(cc2oc1=O)CCC3)Nc1ccc(Cl)cc1C(F)(F)F` [Compound C, N-(4-chloro-2-trifluoromethylphenyl)-2-(2-oxo-4-phenyl-2,6,7,8-tetrahydrocyclopenta[g]chromen-3-yl)acetamide] registered a melting point of 198 to 200 °C. This compound also gave an aortic cholesteryl ester content in data set [2] (apoE KO mice, then normal diet oral for 4 weeks (method: 10 mg/kg/day), control 6.83) of 5.3 µg/mg. Besides, the “% lesion area” value in data set [2] (apoE KO mice, then normal diet oral for 4 weeks (method: 10 mg/kg/day), control 31.2%) is on record as 23.3%.
For `O=C(Cc1c(-c2ccccc2)c2cc3c(cc2oc1=O)CCC3)Nc1ccc(F)cc1C(F)(F)F` [Example 20], the melting point fell in the range of 186 to 187 °C.
`Cc1cc2oc(=O)c(CC(=O)Nc3ccc(F)cc3C(F)(F)F)c(-c3ccccc3)c2cc1Br` [Example 177, 2-(6-bromo-7-methyl-2-oxo-4-phenyl-2H-chromen-3-yl)-N-[4-fluoro-2-(trifluoromethyl)phenyl]acetamide] showed a melting point of 237 to 238 °C.
Take `COc1cccc(OC)c1NC(=O)Cc1c(-c2ccccc2C)c2cc(Cl)ccc2oc1=O` [Compound A, 2-[6-chloro-2-oxo-4-(2-methylphenyl)-2H-chromen-3-yl]-N-(2,6-dimethoxyphenyl)acetamide]: the “lesion (plaque) area based on the vascular internal surface area” value in data set [3] came out at 15%.
In the case of `O=C(Cc1c(-c2ccccc2)c2cc3c(cc2oc1=O)CCC3)Nc1ccccc1OC(F)(F)F` [Example 12], the melting point was in the range of 191 to 194 °C.
As to `COc1cccc(OC)c1NC(=O)Cc1c(-c2ccccc2)c2cc(COC(C)=O)c(Cl)cc2oc1=O` [Example 80, [7-chloro-3-{2-(2,6-dimethoxyanilino)-2-oxoethyl}-2-oxo-4-phenyl-2H-chromen-6-yl]methyl acetate], the melting point is 229 to 231 °C.
Compound `COc1cccc(OC)c1NC(=O)Cc1c(-c2ccccc2)c2cc(Cl)c(Cl)cc2oc1=O` [Example 36] displayed a melting point of 249 to 250 °C.
